Experiments:
Test in all cases: relative viability (nuclei count vs DMSO), 5 days (fraction); higher = more cells survive
[1] = compound: C1CSC2=C(C(=O)N1)SC3=C2C=C(C=C3)O [kb NB 142-70] + CC(=O)c1c(C)c2cnc(Nc3ccc(N4CCNCC4)cn3)nc2n(C2CCCC2)c1=O [Palbociclib] (partner 0.5 µM)
Procedure, shortened: (§1)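 For relative viability, nuclei counts in treated wells were divided by those in vehicle wells. Lung cancer cell lines had been pin-tool dosed in 1536-well plates the day after seeding and cultured for 5 days, then fixed and stained in one step (final 0.05% Triton X-100, 1% formaldehyde, 1 ug/ml Hoechst) and imaged at 4×. Doses were one drug alone or a fixed anchor-drug dose plus five library-drug doses (not always all listed) in √10 steps, and values are duplicate-plate medians.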

[2] = compound: C1CSC2=C(C(=O)N1)SC3=C2C=C(C=C3)O [kb NB 142-70] + CCNC(=O)c1noc(-c2cc(C(C)C)c(O)cc2O)c1-c1ccc(CN2CCOCC2)cc1 [Luminespib] (partner 0.01 µM)
Procedure, shortened: as §1

[3] = compound: NCC(=O)Nc1ccc(-n2nc(C(F)(F)F)cc2-c2ccc3c(ccc4ccccc43)c2)cc1 + CC(=O)Nc1cccc(-n2c(=O)n(C3CC3)c(=O)c3c(Nc4ccc(I)cc4F)n(C)c(=O)c(C)c32)c1 [Trametinib] (partner 0.02 µM)
Procedure, shortened: as §1

[4] = compound: NCC(=O)Nc1ccc(-n2nc(C(F)(F)F)cc2-c2ccc3c(ccc4ccccc43)c2)cc1 + CC(=O)c1c(C)c2cnc(Nc3ccc(N4CCNCC4)cn3)nc2n(C2CCCC2)c1=O [Palbociclib] (partner 0.5 µM)
Procedure, shortened: as §1

NCI-H2347
relative viability ([1]; first compound 0.1 µM): 0.438 | relative viability ([1]; first compound 1 µM): 0.439 | relative viability ([1]; first compound 3.162 µM): 0.488 | relative viability ([2]; first compound 0.1 µM): 0.387 | relative viability ([2]; first compound 1 µM): 0.431 | relative viability ([2]; first compound 3.162 µM): 0.387 | relative viability ([3]; first compound 0.02 µM): 0.311 | relative viability ([3]; first compound 0.06325 µM): 0.285 | relative viability ([3]; first compound 0.2 µM): 0.297 | relative viability ([3]; first compound 0.6325 µM): 0.268 | relative viability ([3]; first compound 2 µM): 0.357 | relative viability ([4]; first compound 0.02 µM): 0.426 | relative viability ([4]; first compound 0.06325 µM): 0.384 | relative viability ([4]; first compound 0.2 µM): 0.448 | relative viability ([4]; first compound 0.6325 µM): 0.473 | relative viability ([4]; first compound 2 µM): 0.419

NCI-H2405
relative viability ([1]; first compound 0.1 µM): 0.552 | relative viability ([1]; first compound 1 µM): 0.563 | relative viability ([1]; first compound 3.162 µM): 0.499 | relative viability ([2]; first compound 0.1 µM): 0.733 | relative viability ([2]; first compound 1 µM): 0.728 | relative viability ([2]; first compound 3.162 µM): 0.523 | relative viability ([3]; first compound 0.02 µM): 0.5 | relative viability ([3]; first compound 0.06325 µM): 0.721 | relative viability ([3]; first compound 0.2 µM): 0.67 | relative viability ([3]; first compound 0.6325 µM): 0.635 | relative viability ([3]; first compound 2 µM): 0.734 | relative viability ([4]; first compound 0.02 µM): 0.501 | relative viability ([4]; first compound 0.06325 µM): 0.519 | relative viability ([4]; first compound 0.2 µM): 0.556 | relative viability ([4]; first compound 0.6325 µM): 0.515 | relative viability ([4]; first compound 2 µM): 0.517

NCI-H3122
relative viability ([1]; first compound 0.1 µM): 0.181 | relative viability ([1]; first compound 1 µM): 0.199 | relative viability ([1]; first compound 3.162 µM): 0.187 | relative viability ([2]; first compound 0.1 µM): 0.0874 | relative viability ([2]; first compound 1 µM): 0.075 | relative viability ([2]; first compound 3.162 µM): 0.0881 | relative viability ([3]; first compound 0.02 µM): 0.204 | relative viability ([3]; first compound 0.06325 µM): 0.245 | relative viability ([3]; first compound 0.2 µM): 0.188 | relative viability ([3]; first compound 0.6325 µM): 0.232 | relative viability ([3]; first compound 2 µM): 0.261 | relative viability ([4]; first compound 0.02 µM): 0.197 | relative viability ([4]; first compound 0.06325 µM): 0.182 | relative viability ([4]; first compound 0.2 µM): 0.179 | relative viability ([4]; first compound 0.6325 µM): 0.206 | relative viability ([4]; first compound 2 µM): 0.155

PC-3 [JPC-3]
relative viability ([1]; first compound 0.1 µM): 0.516 | relative viability ([1]; first compound 1 µM): 0.54 | relative viability ([1]; first compound 3.162 µM): 0.534 | relative viability ([2]; first compound 0.1 µM): 0.709 | relative viability ([2]; first compound 1 µM): 0.817 | relative viability ([2]; first compound 3.162 µM): 0.627 | relative viability ([3]; first compound 0.02 µM): 0.701 | relative viability ([3]; first compound 0.06325 µM): 0.776 | relative viability ([3]; first compound 0.2 µM): 0.715 | relative viability ([3]; first compound 0.6325 µM): 0.71 | relative viability ([3]; first compound 2 µM): 0.775 | relative viability ([4]; first compound 0.02 µM): 0.536 | relative viability ([4]; first compound 0.06325 µM): 0.561 | relative viability ([4]; first compound 0.2 µM): 0.578 | relative viability ([4]; first compound 0.6325 µM): 0.524 | relative viability ([4]; first compound 2 µM): 0.571

PC-14
relative viability ([1]; first compound 0.1 µM): 0.557 | relative viability ([1]; first compound 1 µM): 0.636 | relative viability ([1]; first compound 3.162 µM): 0.496 | relative viability ([2]; first compound 0.1 µM): 0.149 | relative viability ([2]; first compound 1 µM): 0.173 | relative viability ([2]; first compound 3.162 µM): 0.13 | relative viability ([3]; first compound 0.02 µM): 0.861 | relative viability ([3]; first compound 0.06325 µM): 0.704 | relative viability ([3]; first compound 0.6325 µM): 0.625 | relative viability ([3]; first compound 2 µM): 0.608 | relative viability ([4]; first compound 0.02 µM): 0.494 | relative viability ([4]; first compound 0.06325 µM): 0.557 | relative viability ([4]; first compound 0.6325 µM): 0.524 | relative viability ([4]; first compound 2 µM): 0.46

RERF-LC-KJ
relative viability ([1]; first compound 0.1 µM): 1.1 | relative viability ([1]; first compound 1 µM): 1.18 | relative viability ([1]; first compound 3.162 µM): 0.983 | relative viability ([2]; first compound 0.1 µM): 1.33 | relative viability ([2]; first compound 1 µM): 1.27 | relative viability ([2]; first compound 3.162 µM): 0.936 | relative viability ([3]; first compound 0.02 µM): 0.89 | relative viability ([3]; first compound 0.06325 µM): 0.839 | relative viability ([3]; first compound 0.2 µM): 0.847 | relative viability ([3]; first compound 0.6325 µM): 0.843 | relative viability ([3]; first compound 2 µM): 0.848 | relative viability ([4]; first compound 0.02 µM): 0.936 | relative viability ([4]; first compound 0.06325 µM): 1.2 | relative viability ([4]; first compound 0.2 µM): 1.03 | relative viability ([4]; first compound 0.6325 µM): 1.06 | relative viability ([4]; first compound 2 µM): 1.02

SK-LU-1
relative viability ([1]; first compound 0.1 µM): 0.404 | relative viability ([1]; first compound 1 µM): 0.412 | relative viability ([1]; first compound 3.162 µM): 0.359 | relative viability ([2]; first compound 0.1 µM): 0.198 | relative viability ([2]; first compound 1 µM): 0.199 | relative viability ([2]; first compound 3.162 µM): 0.204 | relative viability ([3]; first compound 0.02 µM): 0.43 | relative viability ([3]; first compound 0.06325 µM): 0.519 | relative viability ([3]; first compound 0.2 µM): 0.537 | relative viability ([3]; first compound 0.6325 µM): 0.521 | relative viability ([3]; first compound 2 µM): 0.576 | relative viability ([4]; first compound 0.02 µM): 0.447 | relative viability ([4]; first compound 0.06325 µM): 0.442 | relative viability ([4]; first compound 0.2 µM): 0.404 | relative viability ([4]; first compound 0.6325 µM): 0.372 | relative viability ([4]; first compound 2 µM): 0.434

SK-MES-1
relative viability ([1]; first compound 0.1 µM): 0.343 | relative viability ([1]; first compound 1 µM): 0.424 | relative viability ([1]; first compound 3.162 µM): 0.402 | relative viability ([2]; first compound 0.1 µM): 0.84 | relative viability ([2]; first compound 1 µM): 0.743 | relative viability ([2]; first compound 3.162 µM): 0.35 | relative viability ([3]; first compound 0.02 µM): 0.56 | relative viability ([3]; first compound 0.06325 µM): 0.555 | relative viability ([3]; first compound 0.2 µM): 0.612 | relative viability ([3]; first compound 0.6325 µM): 0.511 | relative viability ([3]; first compound 2 µM): 0.593 | relative viability ([4]; first compound 0.02 µM): 0.34 | relative viability ([4]; first compound 0.06325 µM): 0.294 | relative viability ([4]; first compound 0.2 µM): 0.329 | relative viability ([4]; first compound 0.6325 µM): 0.325 | relative viability ([4]; first compound 2 µM): 0.387

SW 900
relative viability ([1]; first compound 0.1 µM): 0.553 | relative viability ([1]; first compound 1 µM): 0.463 | relative viability ([1]; first compound 3.162 µM): 0.458 | relative viability ([2]; first compound 0.1 µM): 0.187 | relative viability ([2]; first compound 1 µM): 0.181 | relative viability ([2]; first compound 3.162 µM): 0.177 | relative viability ([3]; first compound 0.02 µM): 0.889 | relative viability ([3]; first compound 0.06325 µM): 1.04 | relative viability ([3]; first compound 0.2 µM): 1 | relative viability ([3]; first compound 0.6325 µM): 0.736 | relative viability ([3]; first compound 2 µM): 0.78 | relative viability ([4]; first compound 0.02 µM): 0.513 | relative viability ([4]; first compound 0.06325 µM): 0.661 | relative viability ([4]; first compound 0.2 µM): 0.534 | relative viability ([4]; first compound 0.6325 µM): 0.535 | relative viability ([4]; first compound 2 µM): 0.641

SW 1573
relative viability ([1]; first compound 0.1 µM): 0.418 | relative viability ([1]; first compound 1 µM): 0.376 | relative viability ([1]; first compound 3.162 µM): 0.208 | relative viability ([2]; first compound 0.1 µM): 0.21 | relative viability ([2]; first compound 1 µM): 0.413 | relative viability ([2]; first compound 3.162 µM): 0.149 | relative viability ([3]; first compound 0.02 µM): 0.551 | relative viability ([3]; first compound 0.06325 µM): 0.436 | relative viability ([3]; first compound 0.2 µM): 0.637 | relative viability ([3]; first compound 0.6325 µM): 0.565 | relative viability ([3]; first compound 2 µM): 0.476 | relative viability ([4]; first compound 0.02 µM): 0.409 | relative viability ([4]; first compound 0.06325 µM): 0.466 | relative viability ([4]; first compound 0.2 µM): 0.344 | relative viability ([4]; first compound 0.6325 µM): 0.384 | relative viability ([4]; first compound 2 µM): 0.36
